{"source": "patent US4041048A", "about": "“3,2-Benzoxazepine derivatives” (Gruppo Lepetit S.p.A., priority 1971, dated 1977)", "key": {"[1]": {"system": "central nervous system", "assay": "Inhibition of secondary conditioned avoidance response in mice (anxiety-relieving effect)", "format": "in vivo", "details": "Mus musculus, ip, read-out: ED50, Secondary conditioned avoidance response", "protocol": "(§1) Decreasing the spontaneous activity in mice after intraperitoneal administration of an effective amount of the compounds was taken as a measure of the sedative effect, while impairment of motor coordination and righting reflex were related to hypnotic properties. The myorelaxing characteristics were evaluated by considering the body tone, while the anxiety-relieving effect was measured on the basis of the inhibition of the secondary conditioned avoidance response."}, "[2]": {"system": "central nervous system", "assay": "Impairment of motor coordination and righting reflex in mice (hypnotic properties)", "format": "in vivo", "details": "Mus musculus, ip, read-out: ED50, Impairment of motor coordination and righting reflex", "protocol": "as §1"}, "[3]": {"system": "central nervous system", "assay": "Decrease of spontaneous activity in mice (sedative effect)", "format": "in vivo", "details": "Mus musculus, ip, read-out: ED50, Spontaneous activity", "protocol": "as §1"}, "[4]": {"system": "carrageenin-induced edema", "assay": "Carrageenin-induced edema test (anti-inflammatory activity)", "format": "in vivo", "details": "100 mg/kg p.o., rats", "from_the_text": "|Carrageenin-induced edema test"}, "[5]": {"assay": "Toxicity, LD50 in mice i.p.", "details": "mouse, in vivo, ip"}, "[6]": {"assay": "LD50 to which the edema test dose is related", "format": "in vivo", "details": "rats"}, "[7]": {"system": "central nervous system", "assay": "Body tone in mice (myorelaxing characteristics)", "format": "in vivo", "details": "Mus musculus, ip, read-out: ED50, Body tone", "protocol": "as §1"}}, "data": [{"smiles": "CN1Cc2ccccc2CCO1", "note": "[Example 16]", "values": [{"measurement": "ED50", "setting": "[1]; i.p. in mice", "value": 40, "unit": "mg/kg"}, {"measurement": "ED50", "setting": "[2]; i.p. in mice", "value": 120, "unit": "mg/kg"}, {"measurement": "ED50", "setting": "[3]; i.p. in mice", "value": 100, "unit": "mg/kg"}, {"measurement": "% Decrease of the edema", "setting": "[4]", "value": 30.5, "unit": "%"}, {"measurement": "LD50", "setting": "[5]", "value": "> 500", "unit": "mg/kg"}, {"measurement": "dose of 100 mg/kg per os as fraction of the LD50 value", "setting": "[6]", "value": "about one-tenth to about one-fifth"}, {"measurement": "ED50", "setting": "[7]; i.p. in mice", "value": 10, "unit": "mg/kg"}]}, {"smiles": "CC1c2ccccc2CCON1C(N)=O", "note": "(stereo not drawn) [Example 6, 2-Carbamyl-1-methyl-1,2,4,5-tetrahydro-3,2-benzoxazepine]", "values": [{"measurement": "ED50", "setting": "[1]; i.p. in mice", "value": 15, "unit": "mg/kg"}, {"measurement": "ED50", "setting": "[2]; i.p. in mice", "value": 60, "unit": "mg/kg"}, {"measurement": "ED50", "setting": "[3]; i.p. in mice", "value": 60, "unit": "mg/kg"}, {"measurement": "LD50", "setting": "[5]", "value": "> 500", "unit": "mg/kg"}, {"measurement": "ED50", "setting": "[7]; i.p. in mice", "value": 80, "unit": "mg/kg"}]}, {"smiles": "CC1c2ccccc2CCON1C", "note": "(stereo not drawn) [Example 7, 1,2-Dimethyl-1,2,4,5-tetrahydro-3,2-benzoxazepine]", "values": [{"measurement": "% Decrease of the edema", "setting": "[4]", "value": 30, "unit": "%"}, {"measurement": "LD50", "setting": "[5]", "value": "> 500", "unit": "mg/kg"}, {"measurement": "dose of 100 mg/kg per os as fraction of the LD50 value", "setting": "[6]", "value": "about one-tenth to about one-fifth"}]}, {"smiles": "C=CCN1OCCc2ccccc2C1C", "note": "(stereo not drawn) [Example 17]", "values": [{"measurement": "LD50", "setting": "[5]", "value": "> 500", "unit": "mg/kg"}]}, {"smiles": "CC1c2ccccc2CCON1C(=O)N1CCOCC1", "note": "(stereo not drawn) [Example 24]", "values": [{"measurement": "% Decrease of the edema", "setting": "[4]", "value": 32, "unit": "%"}, {"measurement": "LD50", "setting": "[5]", "value": "> 500", "unit": "mg/kg"}, {"measurement": "dose of 100 mg/kg per os as fraction of the LD50 value", "setting": "[6]", "value": "about one-tenth to about one-fifth"}]}, {"smiles": "CCN(CC)C(=O)N1OCCc2ccccc2C1C", "note": "(stereo not drawn) [Example 11, 2-Diethylcarbamyl-1-methyl-1,2,4,5-tetrahydro-3,2-benzoxazepine]", "values": [{"measurement": "% Decrease of the edema", "setting": "[4]", "value": 31, "unit": "%"}, {"measurement": "LD50", "setting": "[5]", "value": "> 500", "unit": "mg/kg"}, {"measurement": "dose of 100 mg/kg per os as fraction of the LD50 value", "setting": "[6]", "value": "about one-tenth to about one-fifth"}]}, {"smiles": "CNC(=O)N1OCCc2ccccc2C1C", "note": "(stereo not drawn) [Example 15, 1-Methyl-2-methylcarbamyl-1,2,4,5-tetrahydro-3,2-benzoxazepine]", "values": [{"measurement": "% Decrease of the edema", "setting": "[4]", "value": 31.5, "unit": "%"}, {"measurement": "LD50", "setting": "[5]", "value": "> 500", "unit": "mg/kg"}, {"measurement": "dose of 100 mg/kg per os as fraction of the LD50 value", "setting": "[6]", "value": "about one-tenth to about one-fifth"}]}, {"smiles": "CC1NOCCc2ccccc21", "note": "(stereo not drawn) [Example 4, 1-Methyl-1,2,4,5-tetrahydro-3,2-benzoxazepine]", "values": [{"measurement": "ED50", "setting": "[1]; i.p. in mice", "value": 60, "unit": "mg/kg"}, {"measurement": "ED50", "setting": "[2]; i.p. in mice", "value": 60, "unit": "mg/kg"}, {"measurement": "ED50", "setting": "[3]; i.p. in mice", "value": 100, "unit": "mg/kg"}, {"measurement": "ED50", "setting": "[7]; i.p. in mice", "value": 20, "unit": "mg/kg"}]}, {"smiles": "CC(=O)N1OCCc2ccccc2C1C", "note": "(stereo not drawn) [Example 18, 2-acetyl-1-methyl-1,2,4,5-tetrahydro-3,2-benzoxazepine]", "values": [{"measurement": "ED50", "setting": "[1]; i.p. in mice", "value": 60, "unit": "mg/kg"}, {"measurement": "ED50", "setting": "[2]; i.p. in mice", "value": 60, "unit": "mg/kg"}, {"measurement": "ED50", "setting": "[3]; i.p. in mice", "value": 100, "unit": "mg/kg"}, {"measurement": "ED50", "setting": "[7]; i.p. in mice", "value": 200, "unit": "mg/kg"}]}, {"smiles": "NC(=O)OCCN1Cc2ccccc2CCO1", "note": "[Example 9, 2-(2-Carbamyloxyethyl)-1,2,4,5-tetrahydro-3,2-benzoxazepine]", "values": [{"measurement": "ED50", "setting": "[1]", "value": 30, "unit": "mg/kg"}, {"measurement": "ED50", "setting": "[2]", "value": 100, "unit": "mg/kg"}, {"measurement": "ED50", "setting": "[3]", "value": 100, "unit": "mg/kg"}, {"measurement": "LD50", "setting": "[5]", "value": "> 500", "unit": "mg/kg"}, {"measurement": "ED50", "setting": "[7]", "value": 300, "unit": "mg/kg"}]}, {"smiles": "CC(C)=CC(=O)N1OCCc2ccccc2C1C", "note": "(stereo not drawn) [Example 12, 1-Methyl-2-(3-methyl-2-butenoyl)-1,2,4,5-tetrahydro-3,2-benzoxazepine]", "values": [{"measurement": "LD50", "setting": "[5]", "value": "> 500", "unit": "mg/kg"}]}]}
